Data from patent US20080292619A1, “Pharmaceutical Composition Containing Meltrin Antagonist” (MOCHIDA PHARMACEUTICAL CO., LTD., priority 2004, published 2008).
In the oligonucleotide strings, read from the 5' end, every base follows the letter of its sugar. An asterisk marks phosphorothioate; unmarked linkages are phosphodiester. Other units and linkages are bracketed, terminal groups are in braces. A string of capitals states the bases alone. d = 2'-deoxy (DNA)

These substances were tested on human meltrin α RNA (assay: Suppression of human meltrin α expression by antisense compound in RD cell (real time PCR)). Conditions: 50 nM; RD cell; corrected by GAPDH.
Type: cell-based
How it was run: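 RD cells transfected with heat-denatured antisense oligodeoxynucleotide plus Lipofectin in Opti-MEM for 4 h at 37° C, then cultured 18 h. Meltrin α RNA quantified by TaqMan RT-PCR against plasmid standard curve, GAPDH-corrected; suppression vs untreated cells, rated +/++/+++ for ≥30/50/70%.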
For “H172: gcacagctgggggtagttgg (dG*dC*dA*dC*dA*dG*dC*dT*dG*dG*dG*dG*dG*dT*dA*dG*dT*dT*dG*dG; antisense)”, the “suppression rate of expression, 50 nM” value was “+ (“+” when the suppression rate was at least 30%)”. “H173: agctgcatctggtaccataa (dA*dG*dC*dT*dG*dC*dA*dT*dC*dT*dG*dG*dT*dA*dC*dC*dA*dT*dA*dA; antisense)” was tested, and the “suppression rate of expression, 50 nM” value was “++ (“++” when the suppression rate was at least 50%)”. For “H196: agggaggtggcggtttgcag (dA*dG*dG*dG*dA*dG*dG*dT*dG*dG*dC*dG*dG*dT*dT*dT*dG*dC*dA*dG; antisense)”, the “suppression rate of expression, 50 nM” value was “+ (“+” when the suppression rate was at least 30%)”. In the case of “H219: ttcaaggggatgctgcccaa (dT*dT*dC*dA*dA*dG*dG*dG*dG*dA*dT*dG*dC*dT*dG*dC*dC*dC*dA*dA; antisense)”, the “suppression rate of expression, 50 nM” value is reported as “+ (“+” when the suppression rate was at least 30%)”.

Same assay, conditions: 200 nM; RD cell; corrected by GAPDH
With “H164: atgcctactacagcgcactg (dA*dT*dG*dC*dC*dT*dA*dC*dT*dA*dC*dA*dG*dC*dG*dC*dA*dC*dT*dG; antisense)” the “suppression rate of expression, 200 nM” value was “++ (“++” when the suppression rate was at least 50%)”. “H165: aaaactcagtgatggtaaaa (dA*dA*dA*dA*dC*dT*dC*dA*dG*dT*dG*dA*dT*dG*dG*dT*dA*dA*dA*dA; antisense)” was tested, and the “suppression rate of expression, 200 nM” value was “+ (“+” when the suppression rate was at least 30%)”. In the case of “H166: aacaagccttcctgccatgg (dA*dA*dC*dA*dA*dG*dC*dC*dT*dT*dC*dC*dT*dG*dC*dC*dA*dT*dG*dG; antisense)”, the “suppression rate of expression, 200 nM” value is reported as “++ (“++” when the suppression rate was at least 50%)”. In the case of “H168: caagcaggatatttcaagtt (dC*dA*dA*dG*dC*dA*dG*dG*dA*dT*dA*dT*dT*dT*dC*dA*dA*dG*dT*dT; antisense)”, the “suppression rate of expression, 200 nM” value is reported as “+ (“+” when the suppression rate was at least 30%)”. With “H169: catcctgtccagaatcccat (dC*dA*dT*dC*dC*dT*dG*dT*dC*dC*dA*dG*dA*dA*dT*dC*dC*dC*dA*dT; antisense)” the “suppression rate of expression, 200 nM” value was “++ (“++” when the suppression rate was at least 50%)”. With “H170: ccttgatcagaaagcaaaca (dC*dC*dT*dT*dG*dA*dT*dC*dA*dG*dA*dA*dA*dG*dC*dA*dA*dA*dC*dA; antisense)” the “suppression rate of expression, 200 nM” value was “+ (“+” when the suppression rate was at least 30%)”. For “H171: gggactgctttccaataagg (dG*dG*dG*dA*dC*dT*dG*dC*dT*dT*dT*dC*dC*dA*dA*dT*dA*dA*dG*dG; antisense)”, the “suppression rate of expression, 200 nM” value was “++ (“++” when the suppression rate was at least 50%)”. “H172: gcacagctgggggtagttgg (dG*dC*dA*dC*dA*dG*dC*dT*dG*dG*dG*dG*dG*dT*dA*dG*dT*dT*dG*dG; antisense)” was tested, and the “suppression rate of expression, 200 nM” value was “+++ (“+++” when the suppression rate was at least 70%)”. “H173: agctgcatctggtaccataa (dA*dG*dC*dT*dG*dC*dA*dT*dC*dT*dG*dG*dT*dA*dC*dC*dA*dT*dA*dA; antisense)” was tested, and the “suppression rate of expression, 200 nM” value was “+++ (“+++” when the suppression rate was at least 70%)”. “H176: ggctctggcctgagatgggg (dG*dG*dC*dT*dC*dT*dG*dG*dC*dC*dT*dG*dA*dG*dA*dT*dG*dG*dG*dG; antisense)” was tested, and the “suppression rate of expression, 200 nM” value was “+ (“+” when the suppression rate was at least 30%)”. In the case of “H177: gcctggacctgaagcccctt (dG*dC*dC*dT*dG*dG*dA*dC*dC*dT*dG*dA*dA*dG*dC*dC*dC*dC*dT*dT; antisense)”, the “suppression rate of expression, 200 nM” value is reported as “+++ (“+++” when the suppression rate was at least 70%)”. With “H178: ctccctgaaagccaaacaca (dC*dT*dC*dC*dC*dT*dG*dA*dA*dA*dG*dC*dC*dA*dA*dA*dC*dA*dC*dA; antisense)” the “suppression rate of expression, 200 nM” value was “+ (“+” when the suppression rate was at least 30%)”. With “H179: gttgtcaaggggcacagggc (dG*dT*dT*dG*dT*dC*dA*dA*dG*dG*dG*dG*dC*dA*dC*dA*dG*dG*dG*dC; antisense)” the “suppression rate of expression, 200 nM” value was “++ (“++” when the suppression rate was at least 50%)”. With “H180: ccctgggagcctgcctgcca (dC*dC*dC*dT*dG*dG*dG*dA*dG*dC*dC*dT*dG*dC*dC*dT*dG*dC*dC*dA; antisense)” the “suppression rate of expression, 200 nM” value was “++ (“++” when the suppression rate was at least 50%)”. In the case of “H181: gccagatttctcccaggtgt (dG*dC*dC*dA*dG*dA*dT*dT*dT*dC*dT*dC*dC*dC*dA*dG*dG*dT*dG*dT; antisense)”, the “suppression rate of expression, 200 nM” value is reported as “++ (“++” when the suppression rate was at least 50%)”. For “H182: ccaaagcttcctggccagaa (dC*dC*dA*dA*dA*dG*dC*dT*dT*dC*dC*dT*dG*dG*dC*dC*dA*dG*dA*dA; antisense)”, the “suppression rate of expression, 200 nM” value was “++ (“++” when the suppression rate was at least 50%)”. “H183: gtctgcaacccaggttctca (dG*dT*dC*dT*dG*dC*dA*dA*dC*dC*dC*dA*dG*dG*dT*dT*dC*dT*dC*dA; antisense)” was tested, and the “suppression rate of expression, 200 nM” value was “++ (“++” when the suppression rate was at least 50%)”. “H184: ggctacaccttaagattcct (dG*dG*dC*dT*dA*dC*dA*dC*dC*dT*dT*dA*dA*dG*dA*dT*dT*dC*dC*dT; antisense)” was tested, and the “suppression rate of expression, 200 nM” value was “+ (“+” when the suppression rate was at least 30%)”. “H187: ggctggtcagctcagggtca (dG*dG*dC*dT*dG*dG*dT*dC*dA*dG*dC*dT*dC*dA*dG*dG*dG*dT*dC*dA; antisense)” was tested, and the “suppression rate of expression, 200 nM” value was “+++ (“+++” when the suppression rate was at least 70%)”. In the case of “H188: ccccttccaaacatgctcac (dC*dC*dC*dC*dT*dT*dC*dC*dA*dA*dA*dC*dA*dT*dG*dC*dT*dC*dA*dC; antisense)”, the “suppression rate of expression, 200 nM” value is reported as “+ (“+” when the suppression rate was at least 30%)”. “H189: gccttgagtgacactacaga (dG*dC*dC*dT*dT*dG*dA*dG*dT*dG*dA*dC*dA*dC*dT*dA*dC*dA*dG*dA; antisense)” was tested, and the “suppression rate of expression, 200 nM” value was “+ (“+” when the suppression rate was at least 30%)”. In the case of “H195: tgcctgggcagtaggtttct (dT*dG*dC*dC*dT*dG*dG*dG*dC*dA*dG*dT*dA*dG*dG*dT*dT*dT*dC*dT; antisense)”, the “suppression rate of expression, 200 nM” value is reported as “++ (“++” when the suppression rate was at least 50%)”. “H196: agggaggtggcggtttgcag (dA*dG*dG*dG*dA*dG*dG*dT*dG*dG*dC*dG*dG*dT*dT*dT*dG*dC*dA*dG; antisense)” was tested, and the “suppression rate of expression, 200 nM” value was “+++ (“+++” when the suppression rate was at least 70%)”. For “H197: tgctcagctccaagcagtat (dT*dG*dC*dT*dC*dA*dG*dC*dT*dC*dC*dA*dA*dG*dC*dA*dG*dT*dA*dT; antisense)”, the “suppression rate of expression, 200 nM” value was “++ (“++” when the suppression rate was at least 50%)”. “H210: ccccatagagaaggttcttt (dC*dC*dC*dC*dA*dT*dA*dG*dA*dG*dA*dA*dG*dG*dT*dT*dC*dT*dT*dT; antisense)” was tested, and the “suppression rate of expression, 200 nM” value was “++ (“++” when the suppression rate was at least 50%)”. For “H217: ggaagttgataagcaagttg (dG*dG*dA*dA*dG*dT*dT*dG*dA*dT*dA*dA*dG*dC*dA*dA*dG*dT*dT*dG; antisense)”, the “suppression rate of expression, 200 nM” value was “+++ (“+++” when the suppression rate was at least 70%)”. With “H219: ttcaaggggatgctgcccaa (dT*dT*dC*dA*dA*dG*dG*dG*dG*dA*dT*dG*dC*dT*dG*dC*dC*dC*dA*dA; antisense)” the “suppression rate of expression, 200 nM” value was “+++ (“+++” when the suppression rate was at least 70%)”. With “H221: gaaacatggctccctagtca (dG*dA*dA*dA*dC*dA*dT*dG*dG*dC*dT*dC*dC*dC*dT*dA*dG*dT*dC*dA; antisense)” the “suppression rate of expression, 200 nM” value was “+ (“+” when the suppression rate was at least 30%)”. With “H225: aagacagaggcatcatggca (dA*dA*dG*dA*dC*dA*dG*dA*dG*dG*dC*dA*dT*dC*dA*dT*dG*dG*dC*dA; antisense)” the “suppression rate of expression, 200 nM” value was “+++ (“+++” when the suppression rate was at least 70%)”. For “H229: aaagaaggctttctcataaa (dA*dA*dA*dG*dA*dA*dG*dG*dC*dT*dT*dT*dC*dT*dC*dA*dT*dA*dA*dA; antisense)”, the “suppression rate of expression, 200 nM” value was “+ (“+” when the suppression rate was at least 30%)”. In the case of “H230: taggaaaactgttgacccca (dT*dA*dG*dG*dA*dA*dA*dA*dC*dT*dG*dT*dT*dG*dA*dC*dC*dC*dC*dA; antisense)”, the “suppression rate of expression, 200 nM” value is reported as “++ (“++” when the suppression rate was at least 50%)”. With “H233: agttttgttttctggaaggc (DNA dA*dG*dT*dT*dT*dT*dG*dT*dT*dT*dT*dC*dT*dG*dG*dA*dA*dG*dG*dC; antisense)” the “suppression rate of expression, 200 nM” value was “+ (“+” when the suppression rate was at least 30%)”. In the case of “H234: acaccgggaaagtgaaatgc (DNA dA*dC*dA*dC*dC*dG*dG*dG*dA*dA*dA*dG*dT*dG*dA*dA*dA*dT*dG*dC; antisense)”, the “suppression rate of expression, 200 nM” value is reported as “++ (“++” when the suppression rate was at least 50%)”. “H235: ttgcctagatacagtgggga (DNA dT*dT*dG*dC*dC*dT*dA*dG*dA*dT*dA*dC*dA*dG*dT*dG*dG*dG*dG*dA; antisense)” was tested, and the “suppression rate of expression, 200 nM” value was “++ (“++” when the suppression rate was at least 50%)”. In the case of “H237: gtgtcacgtgtttagtttat (DNA dG*dT*dG*dT*dC*dA*dC*dG*dT*dG*dT*dT*dT*dA*dG*dT*dT*dT*dA*dT; antisense)”, the “suppression rate of expression, 200 nM” value is reported as “+ (“+” when the suppression rate was at least 30%)”. In the case of “H239: ttggaatgtattagagctgg (DNA dT*dT*dG*dG*dA*dA*dT*dG*dT*dA*dT*dT*dA*dG*dA*dG*dC*dT*dG*dG; antisense)”, the “suppression rate of expression, 200 nM” value is reported as “+ (“+” when the suppression rate was at least 30%)”. In the case of “H240: acagatgcatgctatacgag (DNA dA*dC*dA*dG*dA*dT*dG*dC*dA*dT*dG*dC*dT*dA*dT*dA*dC*dG*dA*dG; antisense)”, the “suppression rate of expression, 200 nM” value is reported as “++ (“++” when the suppression rate was at least 50%)”. “H243: cagcagtattattttccagc (DNA dC*dA*dG*dC*dA*dG*dT*dA*dT*dT*dA*dT*dT*dT*dT*dC*dC*dA*dG*dC; antisense)” was tested, and the “suppression rate of expression, 200 nM” value was “+ (“+” when the suppression rate was at least 30%)”. In the case of “H247: aacctttttaatagtatata (DNA dA*dA*dC*dC*dT*dT*dT*dT*dT*dA*dA*dT*dA*dG*dT*dA*dT*dA*dT*dA; antisense)”, the “suppression rate of expression, 200 nM” value is reported as “+ (“+” when the suppression rate was at least 30%)”. With “H249: aaaaagacaatgcccacgta (DNA dA*dA*dA*dA*dA*dG*dA*dC*dA*dA*dT*dG*dC*dC*dC*dA*dC*dG*dT*dA; antisense)” the “suppression rate of expression, 200 nM” value was “++ (“++” when the suppression rate was at least 50%)”. With “H250: atctaaggatttgggcatct (DNA dA*dT*dC*dT*dA*dA*dG*dG*dA*dT*dT*dT*dG*dG*dG*dC*dA*dT*dC*dT; antisense)” the “suppression rate of expression, 200 nM” value was “+ (“+” when the suppression rate was at least 30%)”. With “H251: aggaagggctaacatgccag (DNA dA*dG*dG*dA*dA*dG*dG*dG*dC*dT*dA*dA*dC*dA*dT*dG*dC*dC*dA*dG; antisense)” the “suppression rate of expression, 200 nM” value was “+++ (“+++” when the suppression rate was at least 70%)”.
